The structures appear in SMILES notation. Where a name gives a salt, the structure may show the parent alone.

In data set [1] the target is T1, dopamine autoreceptor (D2 Quin.) (Rattus norvegicus, UniProt P61169).
T1 construct: from tissue; host or cells: rat striatal brain tissue homogenate
Kind of data set: Affinity for the dopamine autoreceptor: [3H]-quinpirole binding in homogenized rat striatal brain tissue. As to conditions: rat striatal brain tissue (high-affinity agonist state). The protocol:
Affinity for the dopamine autoreceptor was established by a modification of the standard pharmacological test procedure of Seemen and Schaus, European Journal of Pharmacology 203: 105-109, 1991, wherein homogenized rat striatal brain tissue is incubated with [^3H]-quinpirole (Quin.) at various concentrations of test compound, filtered, washed and counted in a Betaplate scintillation counter.

A further data set has as its system dopamine D2 receptor. Kind of data set: Affinity for the dopamine D2 receptor: [3H]-spiperidone binding in homogenized limbic brain tissue. As to conditions: ratio of IC50 D2 Spiper to IC50 D2 Quin. (LowAg/HighAg). The protocol:
High affinity for the dopamine D2 receptor was established by the standard pharmacological test procedure of Fields, et al., Brain Res., 136, […] (1977) and Yamamura et al., ed., Neurotransmitter Receptor Binding, Raven Press, N.Y. (1978) wherein homogenized limbic brain tissue is incubated with [^3H]-spiperidone at various concentrations of test compound, filtered washed, and shaken with Hydrofluor scintillation cocktail (National Diagnostics) and counted in a Packard 460 CD scintillation counter.

T1 sequence (P61169 whole entry): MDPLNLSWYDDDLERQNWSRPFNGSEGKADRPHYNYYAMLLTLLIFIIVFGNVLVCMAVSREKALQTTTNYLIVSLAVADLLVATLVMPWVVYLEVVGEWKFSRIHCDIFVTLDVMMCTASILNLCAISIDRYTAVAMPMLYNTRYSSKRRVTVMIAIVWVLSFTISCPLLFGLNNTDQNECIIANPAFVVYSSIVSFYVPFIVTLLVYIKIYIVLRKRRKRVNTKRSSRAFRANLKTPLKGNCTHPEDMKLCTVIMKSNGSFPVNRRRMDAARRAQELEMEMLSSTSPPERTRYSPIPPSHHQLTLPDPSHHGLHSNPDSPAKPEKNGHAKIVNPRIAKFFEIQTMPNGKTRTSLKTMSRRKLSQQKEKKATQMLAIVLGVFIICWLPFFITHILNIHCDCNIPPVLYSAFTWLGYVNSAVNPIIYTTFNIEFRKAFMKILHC

In turn, `O=C1Nc2cccc(N3CCN(Cc4ccccc4)CC3)c2C1=O` [Example V, 4-(4-Benzyl-piperazin-1-yl)-1H-indole-2,3-dione] yielded an IC50 in data set [1] of 0.57 ± 0.2 nM. Further, the Ratio antagonist in the data set on dopamine D2 receptor is given as 149.
For `O=C1Nc2cccc(N3CCN(Cc4ccccc4)CC3)c2C1=O` (as salt: fumarate) (hydrate or solvate) [Example V, 4-(4-Benzyl-piperazin-1-yl)-1H-indole-2,3-dione], the melting point is 118 to 120 °C.

By IC50 is commonly meant the concentration needed to halve the response being measured. The low end stands for higher potency, the high end for lower potency. Usually melting point stands for the temperature, or range, at which the solid turns liquid.

These data come from patent US6743796B2, “Piperazinyl-isatins” (Wyeth, priority 2001, dated 2004).
